The text below walks through data of US10766888B1, “HMOX1 inducers” (Mitobridge Inc., priority 2019, dated 2020).

By EC50 is commonly meant the concentration that produces a half-maximal response. What is called inhibition is the share of the control response that was lost under treatment. The term Kd denotes a measure of binding affinity in units of concentration. The solubility is the dissolved amount per volume that the medium holds. The low end stands for little dissolved substance, the high end for much dissolved substance.

≈ marks a conversion by molar mass, not a printed value. Structures can show the parent of a compound that is named as a salt. Where two headings read alike, the source gives them in different places.

One series concerns FTH1. Put plainly: FTH1 mRNA expression in HepG2 cells (Nanostring). The series is classed as cell-based, human. The conditions noted are these: 24 hours treatment. The procedure:
RNA Isolation and Quantification of Gene Expression
HepG2 cells were seeded at 250 k/well in 12-well tissue culture plates coated with collagen (collagen I, rat tail (thin plate coating); ENZO Life Sciences) for approximately 24 hours. The seeded cells were then treated with dose titration of the compound of Example 17 or dimethyl fumarate (DMF) (a Nrf2 activator; Fisher Scientific) via media change, with biological triplicates performed for each treatment. After approximately 24 hours of treatment, cells were visually inspected to confirm that no toxicity occurred with compound treatment. The treated cells were washed with PBS, aspirated, parafilmed and frozen at −80° C. prior to RNA isolation. RNA was isolated using Machery-Nagel isolation kit (NucleoSpin® RNA: catalog 740955.250) and then quantitated using ThermoFisher Nanodrop.
RNA was diluted for Nanostring gene expression analysis. The diluted RNA at an input of 200 ng RNA was run on a Nanostring instrument, which was supported with nCounter® SPRINT Profiler System and nSolver4.0 Software, nCounter® SPRINT Cartridge, nCounter® SPRINT Reagent Pack, and nCounter® SPRINT Hybridization Buffer. Analysis was done manually using raw data obtained from nSolver4.0 Software. CLTC, POLR2A, RPL27 and TBP were used as reference genes for normalization. Data was graphed as fold change compared to DMSO treatment. […]

For series [1], the system named is Human Heme Oxygenase-1 (HMOX-1). The series is described as follows: ELISA assay to measure human heme oxygenase-1 (HMOX-1) in HepG2 lysate. It is filed as cell-based. The procedure, abridged: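 HO-1 protein levels were read as fold change over DMSO-treated cells, with EC50 derived from these values. Quantitation used a chemiluminescent streptavidin-HRP capture ELISA, calibrated with an HO-1 standard series starting at 20 ng/ml, run at 20 °C. Samples were HepG2 lysates made with Triton X100/EDTA buffer and diluted 1:20.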
(An ELISA detects its analyte on a solid surface through an enzyme-linked reagent.)

A further series deals with hERG channel (Homo sapiens, UniProt Q12809). Put plainly: hERG manual patch clamp assay. The conditions noted are these: HEK 293 cells stably expressing hERG channel, pH 7.35, 10 μM compound. It is filed as cell-based. The procedure: Cell Lines and Cell Culture
Chain of hERG channel (Q12809 whole entry): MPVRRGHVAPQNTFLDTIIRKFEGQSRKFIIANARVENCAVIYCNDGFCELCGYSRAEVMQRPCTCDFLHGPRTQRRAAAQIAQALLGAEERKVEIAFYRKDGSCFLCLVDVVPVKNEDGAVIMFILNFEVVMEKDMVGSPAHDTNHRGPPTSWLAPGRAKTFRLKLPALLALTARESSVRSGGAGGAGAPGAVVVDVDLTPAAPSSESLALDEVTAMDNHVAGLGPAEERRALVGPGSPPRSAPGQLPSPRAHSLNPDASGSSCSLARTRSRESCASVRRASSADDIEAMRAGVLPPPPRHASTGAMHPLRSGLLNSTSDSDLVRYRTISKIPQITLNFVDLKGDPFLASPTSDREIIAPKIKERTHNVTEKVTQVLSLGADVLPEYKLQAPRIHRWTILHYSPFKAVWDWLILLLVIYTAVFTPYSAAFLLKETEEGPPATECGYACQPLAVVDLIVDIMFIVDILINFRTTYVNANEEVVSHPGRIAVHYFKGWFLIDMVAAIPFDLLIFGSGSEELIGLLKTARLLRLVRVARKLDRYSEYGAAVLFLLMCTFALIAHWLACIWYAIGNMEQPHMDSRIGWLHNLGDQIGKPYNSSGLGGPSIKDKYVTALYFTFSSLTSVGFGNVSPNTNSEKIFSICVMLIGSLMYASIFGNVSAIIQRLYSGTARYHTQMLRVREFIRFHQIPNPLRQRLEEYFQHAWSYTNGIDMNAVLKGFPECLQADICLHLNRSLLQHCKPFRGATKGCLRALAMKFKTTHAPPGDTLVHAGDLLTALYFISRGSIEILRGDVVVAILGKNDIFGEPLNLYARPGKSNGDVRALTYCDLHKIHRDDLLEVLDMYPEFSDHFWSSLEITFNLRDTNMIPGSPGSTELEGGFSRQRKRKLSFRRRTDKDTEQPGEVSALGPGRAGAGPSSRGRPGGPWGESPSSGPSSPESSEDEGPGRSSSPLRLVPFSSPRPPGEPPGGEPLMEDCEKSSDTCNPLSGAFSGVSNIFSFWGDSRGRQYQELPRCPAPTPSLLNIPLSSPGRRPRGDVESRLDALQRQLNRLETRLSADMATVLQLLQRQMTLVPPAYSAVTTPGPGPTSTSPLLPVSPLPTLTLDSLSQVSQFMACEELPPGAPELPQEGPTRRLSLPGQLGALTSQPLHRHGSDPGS
HEK 293 cell line stably expressing hERG channel (Cat # K1236) was purchased from Invitrogen. The cells were cultured in 85% DMEM, 10% dialyzed FBS, 0.1 mM NEAA, 25 mM HEPES, 100 U/mL Penicillin-Streptomycin and 5 μg/mL Blasticidin and 400 μg/mL Geneticin. Cells were split using TrypLE™ Express about three times a week, and maintained between ˜40% to ˜80% confluence. Before the assay, the cells were transferred onto the coverslips at 5×10^5 cells/per 6 cm cell culture dish and induced with doxycycline at 1 μg/mL for 48 hours.
• 1) External solution (in mM): 132 NaCl, 4 KCl, 3 CaCl2, 0.5 MgCl2, 11.1 glucose, and 10 HEPES (pH adjusted to 7.35 with NaOH) • 2) Internal solution (in mM): 140 KCl, 2 MgCl2, 10 EGTA, 10 HEPES and 5 MgATP (pH adjusted to 7.35 with KOH) • 3) hERG currents were tested in presence of 10 μM compound concentration with final concentration of DMSO of 0.1%. Experimental Procedure • 1) Removed the coverslip from the cell culture dish and placed it on the microscope stage in bath chamber. • 2) Located a desirable cell using the 10× objective. Located the tip of the electrode under the microscope using the 10× objective by focusing above the plane of the cells. Once the tip was in focus, advanced the electrode downwards towards the cell using the coarse controls of the manipulator, while simultaneously moving the objective to keep the tip in focus. • 3) When directly over the cell, switched to the 40× objective and used the fine controls of the manipulator to approach the surface of the cell in small steps. • 4) Applied gentle suction through the side-port of the electrode holder to form a gigaohm seal. • 5) Used the Cfast to remove the capacity current that was in coincidence with the voltage step. Obtained the whole cell configuration by applying repetitive, brief, strong suction until the membrane patch ruptured. • 6) Set membrane potential to −60 mV at this point to ensure that hERG channels were not • open. The spikes of capacity current should then be cancelled using the Cslow on the amplifier. 7) Set holding potential to −90 mV for 500 ms; recorded current at 50 kHz and filtered at 10 kHz. Leaking current was tested at −80 mV for 500 ms. • 8) The hERG current was elicited by depolarizing at +30 mV for 4.8 seconds and then the voltage was taken back to −50 mV for 5.2 seconds to remove the inactivation and observe the deactivating tail current. The maximum amount of tail current size was used to determine hERG current amplitude. • 9) Recorded current for 120 seconds to assess the current stability. Only stable cells with recording parameters above threshold were applied for the compound administrations. • 10) Firstly vehicle control was applied to the cells to establish the baseline. […] In order to ensure the good performance of cultured cells and operations, the positive control, Dofetilide, with 5 dose concentration was also used to test the same batch of cells. Data Analysis
The following criteria were used to determine data acceptability. • 1) Initial seal resistance >1 GΩ; • 2) Leak currents <50% of the control peak tail currents at any time; • 3) The peak tail amplitude >250 pA; • 4) Membrane resistance Rm>500 MΩ; • 5) Access resistance (Ra)<10 MΩ; • 6) Apparent run-down of peak current <2.5% per min.
Data that met the above criteria for hERG current quality were further analyzed as the following steps. • 1) Percent hERG current inhibition was calculated using the following equation. • Note: PatchMaster or Clampfit software was used to extract the peak current from the original data.
[formula] • 2) The dose response curve of test compounds was plotted with percentage of hERG current inhibition against the concentration of test compounds using Graphpad Prism 6.0, and fit to a sigmoid dose-response curve with a variable slope.

Series [2] in a line: PD study: compound concentration in mouse liver. The series is classed as in vivo, C57BL/6 mice. The conditions noted are these: male, C57BL/6, mouse, 50 mg/kg, 50 mpk oral; for concentration at 3 h: read-out: Liver Conc uM (3 h); for concentration at 6 h: read-out: Liver Conc uM (6 h). Here is the method: 9-10 week old male C57BL/6 mice were dosed orally with 50 mg/kg of vehicle or compound formulated in 5% w/v tween 80 and 0.5% methyl cellulose. At indicated time points (3 and 6 hours or or 4 and 8 hours post-dosing as shown in the results below), whole blood was collected, animal was sacrificed and liver was collected. Blood samples were transferred to vials containing 4 μL of 10% w/v EDTA, centrifuged at 6000 rpm for 8 in below 10° C. to obtain plasma. Samples were frozen and later processed for HMOX1 protein levels as indicated below: […]

The target of another series is T1, Human BACH1 (Homo sapiens, UniProt O14867).
T1 construct: 10×HIS-GP-BACH1(aa179-736)-Thrombin-FLAG; 10xHis (N); GP linker (Gly-Pro) (N); Thrombin cleavage site (C); FLAG (C); host or cells: Sf9 insect cells
T1 sequence (O14867 179-736): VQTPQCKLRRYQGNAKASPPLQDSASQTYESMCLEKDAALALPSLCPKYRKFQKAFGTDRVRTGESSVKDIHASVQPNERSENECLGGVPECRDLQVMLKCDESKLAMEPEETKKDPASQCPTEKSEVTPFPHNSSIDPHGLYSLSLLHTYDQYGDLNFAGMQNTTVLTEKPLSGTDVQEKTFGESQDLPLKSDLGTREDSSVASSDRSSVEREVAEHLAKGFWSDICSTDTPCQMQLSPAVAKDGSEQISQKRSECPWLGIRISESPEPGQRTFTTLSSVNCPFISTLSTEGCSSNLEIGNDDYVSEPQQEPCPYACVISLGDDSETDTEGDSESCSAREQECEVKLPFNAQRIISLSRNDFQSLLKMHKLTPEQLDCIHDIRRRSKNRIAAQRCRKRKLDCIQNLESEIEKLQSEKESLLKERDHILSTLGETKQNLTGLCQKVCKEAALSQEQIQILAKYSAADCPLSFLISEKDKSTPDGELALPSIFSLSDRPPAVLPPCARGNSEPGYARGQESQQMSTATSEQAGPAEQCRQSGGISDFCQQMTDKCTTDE
Put plainly: Microscale thermophoresis (MST) assay / Bach 1 binding assay. As to conditions: 10 nM fluorescently labeled BACH1(aa179-736), 25° C. Here is the method:
Example 146. Microscale Thermophoresis (MST) Assay/Bach 1 Binding Assay
Outline of Protein Expression/Production
Human BACH1 (construct-ID: 10×HIS-GP-BACH1(aa179-736)-Thrombin-FLAG) was expressed in Sf9 insect cells. Protein purification was performed using affinity chromatography, followed by size-exclusion chromatography. Quality of resulting protein was judged using SDS-PAGE analysis.
The MST technology is based on measurement of protein movement along a temperature gradient. Thereby, fluorescently labeled protein is loaded into capillaries, where an infrared laser heats a small volume. Before and during heating, fluorescent intensity is measured at the site of irradiation and the loss of fluorescence in the IR laser focus is quantified.
Two major factors contribute to change of fluorescence signal. First of all, the so-called TRIC (Temperature Related Intensity Change) effect is caused by the temperature-dependency of fluorophore's quantum yield. Herein, the extent of the temperature dependence depends on the chemical environment, which may be changed by the binding of a ligand (e.g. compound, peptide) to the target. Moreover, Kd value between ligand and target can depend on temperature. Second, thermophoresis, which is defined as movement of fluorescent molecules along temperature gradient, is a major contributor to change of fluorescence. Hereby, protein movement along the gradient depends on hydrodynamic radius, charge and hydration shell. These properties can change upon association of the labeled protein with another species, e.g. compound. Thereby, MST detects the differences in protein movement with increasing ligand concentration: from this, the fraction of ligand bound protein and a Kd value can be determined.
For Kd determination of compounds binding BACH1, the following protocol was applied: 10×HIS-GP-BACH1(aa179-736)-Thrombin-FLAG (expressed and purified at Proteros) was fluorescently labeled via its lysine-residues (2nd gen NHS-NT.647 dye).
Experiments were performed using the experimental device Monolith NT.115 Pico, NanoTemper Technologies, with MST power set to medium and excitation power set to 2% at a reaction temperature of 25° C.
10 nM fluorescently labeled BACH1 was applied to reaction buffer containing 50 mM HEPES pH 8.0, 100 mM NaCl, 5% glycerol, 0.05% Tween20 and 1 mM DTT in a reaction volume of 8 μL using Monolith NT.115 Premium Capillaries. Compounds were applied at a maximal concentration of 103 μM with 15 subsequent factor 2 dilutions.
A general note: MST reads how a fluorescent partner responds to local heating, with and without ligand.

A further series in a line: Kinetic solubility. As to conditions: Dulbecco's phosphate buffer saline (DPBS), aqueous buffer, kinetic from dmso stock, DPBS pH 7.4, 25° C., 200 μM test compound. The series is classed as physicochemical. The procedure, abridged:
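Compound from 10 mM DMSO stock diluted to 200 μM final in DPBS pH 7.4 and, separately, in DMSO, in duplicate. Shaken 16 h at 25 °C, then centrifuged 20 min at 25 °C. Supernatant analysed by HPLC.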

The mark [3] stands for this setting: HepG2, human HMOX1, as listed in Table 5, read-out: HMOX1 EC50 h.
[4] abbreviates: human HMOX1 protein level in HepG2 lysate, * = average of 2 or more EC50 determinations, NA = Not Active, read-out: EC50.

For `COC(=O)/C=C/C(=O)OC` [DMF, dimethyl fumarate, reference compound], the “FTH1 expression fold increase (in words)” value with FTH1 is on record as “comparable fold increases”.

Consider `Cn1c(Nc2nc3cc(OC(F)(F)F)ccc3[nH]2)nc2cc(C(=O)O)ccc21` [Example 13, 1-methyl-2-((5-(trifluoromethoxy)-1H-benzo[d]imidazol-2-yl)amino)-1H-benzo[d]imidazole-5-carboxylic acid], for which the EC50 in series [1] (setting [3]) and in series [1] (setting [4]) was 1.9 µM each time. The compound also had an inhibition at 10 µM against hERG channel of 34%. Further, the concentration at 3 h in series [2] is 63 µM. Further, the concentration at 6 h in series [2] was 5.4 µM.

At Human BACH1, `Cn1c(Nc2nc3ccc(C(F)(F)F)cc3o2)nc2cc(C(=O)NCCO)ccc21` [Example 33, N-(2-hydroxyethyl)-1-methyl-2-((6-(trifluoromethyl)benzo[d]oxazol-2-yl)amino)-1H-benzo[d]imidazole-5-carboxamide] yielded a Kd of 0.26 µM. Also, in series [1] (setting [4]), the EC50 stood at 0.3 µM. The solubility at 16 h in the series “Kinetic solubility” was 0.9 µM (≈ 0.377 µg/mL).

Take `Cn1c(Nc2nc3ccc(OC(F)(F)F)cc3o2)nc2cc(C(=O)O)ccc21` [Example 44, 1-methyl-2-((6-(trifluoromethoxy)benzo[d]oxazol-2-yl)amino)-1H-benzo[d]imidazole-5-carboxylic acid]: in series [1] (setting [3]), the EC50 stood at 2 µM. For the same compound, the EC50 in series [1] (setting [4]) amounted to 1.3 µM. The compound further had an inhibition at 10 µM at hERG channel of 15%. For the same compound, in series [2], the concentration at 3 h came to 217 µM and the concentration at 6 h was 162 µM.

`COCCNC(=O)c1ccc2c(c1)nc(Nc1nc3ncccc3o1)n2C` [Example 112, N-(2-methoxyethyl)-1-methyl-2-(oxazolo[4,5-b]pyridin-2-ylamino)-1H-benzo[d]imidazole-5-carboxamide] registered a Kd at Human BACH1 of 0.56 µM.

Turning to `COCCONC(=O)c1ccc2c(c1)nc(Nc1nc3ccc(C(F)(F)F)cc3o1)n2C` [Example 124, N-(2-methoxyethoxy)-1-methyl-2-((6-(trifluoromethyl)benzo[d]oxazol-2-yl)amino)-1H-benzo[d]imidazole-5-carboxamide], the Kd at Human BACH1 is 0.2 µM. In addition, in series [1] (setting [4]), the EC50 stood at 0.2 µM. Besides, the solubility at 16 h in the series “Kinetic solubility” is < 2 µM.
